Experiments:
HCT116 (colon) = experiment: In vitro cytotoxic activity (MTT) assay, HCT116; format: cell-based; details: Homo sapiens, HCT-116; HCT116 (colon) cells, exposed for 96 hours; read-out: IC50, 50% inhibition of cell proliferation
Method: (§1) Compounds 1a-12a and 1b-12b were screened for their in vitro cytotoxic activity utilizing a 3-(4,5-dimethyl-thiazol-2-yl)-2,5-diphenyltetrazolium bromide (MTT) assay against selected cancer human cell lines consisting of PC3 (prostate), HCT116 (colon), A375 (melanoma), H1299 (lung), MIAPaCa-2 (pancreas), HL60 (leukemia), MCF7 (breast), MDA-MB-231 (breast) (T. Mosmann, J. Immunol. Meth., 1983, 65, 55-63). The cells were cultured at 37° C. in RMPI1640 medium supplemented with 10% fetal bovine serum, 50 IU/mL penicillin, and 50 μg/mL streptomycin in a 5% CO2 incubator. All cells were sub-cultured 3 times/week by trypsinisation. Viable cells were seeded and allowed to adhere for 12 h before a test drug was added in 96-well plates at an initial density of 1.0×10^5 cells/mL. Tumor cell lines were separately exposed to various concentrations of the tested compounds followed by incubation at a temperature of 37° C. during 96 hours inside a medium of fresh RMPI1640. Cells were subsequently incubated at 37° C. using MTT at 0.5 mg/mL during 4 hours. After removal of supernatant, formazan crystals were dissolved in isopropanol and the optical density was measured at 570 nm. CX-4945 was used as a positive control.

MDA-MB-231 (breast) = experiment: In vitro cytotoxic activity (MTT) assay, MDA-MB-231; format: cell-based; details: Homo sapiens; MDA-MB-231 (breast) cells, exposed for 96 hours; read-out: IC50, 50% inhibition of cell proliferation
Method: as §1

HL60 (leukemia) = experiment: In vitro cytotoxic activity (MTT) assay, HL60; format: cell-based; details: Homo sapiens, HL-60; HL60 (leukemia) cells, exposed for 96 hours; read-out: IC50, 50% inhibition of cell proliferation
Method: as §1

MIAPaCa-2 (pancreas) = experiment: In vitro cytotoxic activity (MTT) assay, MIAPaCa-2; format: cell-based; details: Homo sapiens, MIA PaCa-2; MIAPaCa-2 (pancreas) cells, exposed for 96 hours; read-out: IC50, 50% inhibition of cell proliferation
Method: as §1

MCF7 (breast) = experiment: In vitro cytotoxic activity (MTT) assay, MCF7; format: cell-based; details: Homo sapiens; MCF7 (breast) cells, exposed for 96 hours; read-out: IC50, 50% inhibition of cell proliferation
Method: as §1

H1299 (lung) = experiment: In vitro cytotoxic activity (MTT) assay, H1299; format: cell-based; details: Homo sapiens, NCI-H1299; H1299 (lung) cells, exposed for 96 hours; read-out: IC50, 50% inhibition of cell proliferation
Method: as §1

[1] = biological target: T1, recombinant human CK2 (RRBB-holoenzyme) (Homo sapiens, UniProt P68400); experiment: CK2 Kinase Assay (33P-ATP, filter plate); format: biochemical; details: recombinant human CK2, final ATP concentration 15 μM, 10 min at 30° C.; read-out: protein kinase CK2 activity IC50
T1 construct: purchased Millipore
Method: CK2 Kinase Assay was conducted using the protocol as described in Pierre F. et al; J. Med. Chem. 2011, 54, 635-654. The tested compounds in aqueous solution were added at a volume of 10 μL to a reaction mixture comprising 10 μL of assay dilution buffer (ADB; 20 mM MOPS, pH 7.2, 25 mM β-glycerol phosphate, 5 mM EGTA, 1 mM sodium orthovanadate, and 1 mM dithiothreitol), 10 μL of substrate peptide (RRRDDDSDDD, dissolved in ADB at a concentration of 1 mM), 10 μL of recombinant human CK2 (RRBB-holoenzyme, 25 ng dissolved in ADB; Millipore). Reactions were initiated by the addition of 10 μL of ATP solution (90%75 mMMgCl2, 75 μM ATP (final ATP concentration: 15 μM) dissolved in ADB; 10% [γ-33P] ATP (stock 1mCi/100 μL; 3000 Ci/mmol (Perkin-Elmer) and maintained for 10 min at 30° C. The reactions were quenched with 100 μL of 0.75% phosphoric acid and then transferred to and filtered through a phosphor cellulose filter plate (Millipore). After washing each well five times with 0.75% phosphoric acid, the plate was dried under vacuum for 5 min and, following the addition of 15 μL of scintillation fluid to each well, the residual radioactivity was measured using a Wallac luminescence counter. The IC50 values were derived from eight concentrations of test inhibitors.

PC3 (prostate) = experiment: In vitro cytotoxic activity (MTT) assay, PC3; format: cell-based; details: Homo sapiens, Prostate cell; PC3 (prostate) cells, exposed for 96 hours; read-out: IC50, 50% inhibition of cell proliferation
Method: as §1

A375 (melanoma) = experiment: In vitro cytotoxic activity (MTT) assay, A375; format: cell-based; details: Homo sapiens, A-375; A375 (melanoma) cells, exposed for 96 hours; read-out: IC50, 50% inhibition of cell proliferation
Method: as §1

T1 sequence (P68400 whole entry): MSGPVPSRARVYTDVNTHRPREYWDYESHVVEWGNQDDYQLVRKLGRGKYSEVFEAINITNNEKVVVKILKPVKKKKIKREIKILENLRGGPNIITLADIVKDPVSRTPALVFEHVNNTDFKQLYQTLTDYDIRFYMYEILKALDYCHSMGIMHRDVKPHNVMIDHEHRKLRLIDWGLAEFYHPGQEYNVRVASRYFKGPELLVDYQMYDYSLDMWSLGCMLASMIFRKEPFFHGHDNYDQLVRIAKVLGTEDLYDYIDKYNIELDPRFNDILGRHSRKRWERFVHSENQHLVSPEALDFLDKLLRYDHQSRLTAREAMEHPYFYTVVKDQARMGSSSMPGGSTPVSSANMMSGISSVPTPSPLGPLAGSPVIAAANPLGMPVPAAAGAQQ
T1 sequence (P67870 whole entry partner): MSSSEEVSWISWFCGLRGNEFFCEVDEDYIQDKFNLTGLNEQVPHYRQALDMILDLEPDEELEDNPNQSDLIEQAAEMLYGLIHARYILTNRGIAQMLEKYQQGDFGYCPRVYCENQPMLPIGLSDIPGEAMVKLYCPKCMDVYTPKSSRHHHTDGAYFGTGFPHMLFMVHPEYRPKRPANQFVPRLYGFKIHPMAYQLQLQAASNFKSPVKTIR

Row | IC50 [1] [nM] | SMILES | IC50 (HCT116 (colon)) [nM] | IC50 (MDA-MB-231 (breast)) [nM] | IC50 (HL60 (leukemia)) [nM] | IC50 (MIAPaCa-2 (pancreas)) [nM] | IC50 (MCF7 (breast)) [nM] | IC50 (H1299 (lung)) [nM] | IC50 (PC3 (prostate)) [nM] | IC50 (A375 (melanoma)) [nM]
1 | 98 | FC(F)(F)c1cccc(Nc2c(-c3ccncn3)nc3cnccn23)c1 [Compound 2b, 2-(pyrimidin-4-yl)-N-(3-(trifluoromethyl)phenyl)imidazo[1,2-a]pyrazin-3-amine] | 1500 | 4200 | 4500 | 1600 | 5000 | 1200 | 1400 | 3500
2 |  | O=C(O)c1ccc2c(c1)nc(Nc1cccc(Cl)c1)c1ccncc12 [CX-4945, Silmitasertib, reference compound] | 2300 | 6200 | 3700 | 1000 | 9100 | 2300 | 2000 | 4100
3 | 115 | FC(F)(F)c1cccc(Nc2c(-c3ccncc3)nc3cnccn23)c1 [Compound 3a, 2-(pyridin-4-yl)-N-(3-(trifluoromethyl)phenyl)imidazo[1,2-a]pyrazin-3-amine] | 1700 | 4600 | 4400 | 1300 | 5100 | 1500 | 1200 | 3400

— US12129257B1, “Imidazo[1,2-a]pyrazine compounds as CK2 inhibitors” (KING FAISAL UNIVERSITY, priority 2023, dated 2024)
